Reference: publication PMC9805530 (European journal of medicinal chemistry, 2022)
“Also recorded” adds a separate entry of the source.

Key:
Sirt6 [1] = target: T1, Sirt6 (Homo sapiens, UniProt Q8N6T7); assay: Sirt6-dependent peptide deacetylation, Fluor de Lys; conditions: for Activation Fold 100 μM: compound at 100 μM; for Activation Fold 100 μM / Activation Fold 30 μM: mean ± SD, at least two independent experiments; for effect on Sirt6 activity (time course): Fig. 3A; for Activation Fold 30 μM: compound at 30 μM
BV2 cells = assay: LPS-induced inflammatory gene mRNA expression; conditions: 30 μM pretreatment 30 minutes, 100 ng/mL LPS 6 hours
Sirt2 = target: T2, Sirt2 (Homo sapiens, UniProt Q8IXJ6); assay: Sirt2 deacetylation Activity Assay Kit; conditions: time course, Fig. 3
T2 sequence (Q8IXJ6 1-389): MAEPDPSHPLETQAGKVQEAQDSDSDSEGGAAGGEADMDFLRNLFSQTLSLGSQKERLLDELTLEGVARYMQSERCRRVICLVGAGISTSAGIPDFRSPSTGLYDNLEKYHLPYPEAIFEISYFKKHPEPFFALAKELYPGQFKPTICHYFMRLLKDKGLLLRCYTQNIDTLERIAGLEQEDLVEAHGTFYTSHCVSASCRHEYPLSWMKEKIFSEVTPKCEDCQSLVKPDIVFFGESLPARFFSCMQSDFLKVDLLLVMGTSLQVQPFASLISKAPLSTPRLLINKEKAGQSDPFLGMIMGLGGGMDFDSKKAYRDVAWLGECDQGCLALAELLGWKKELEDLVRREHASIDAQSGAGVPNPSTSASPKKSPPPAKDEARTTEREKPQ

Sirt6 [2] = target: T1, Sirt6; format: biochemical; conditions: 100 μM, 30 °C, 60 minutes
Sirt1 = target: T3, Sirt1 (Homo sapiens, UniProt Q96EB6); assay: Sirt1 deacetylation Activity Assay Kit; conditions: time course, Fig. 3
T3 sequence (Q96EB6 1-747): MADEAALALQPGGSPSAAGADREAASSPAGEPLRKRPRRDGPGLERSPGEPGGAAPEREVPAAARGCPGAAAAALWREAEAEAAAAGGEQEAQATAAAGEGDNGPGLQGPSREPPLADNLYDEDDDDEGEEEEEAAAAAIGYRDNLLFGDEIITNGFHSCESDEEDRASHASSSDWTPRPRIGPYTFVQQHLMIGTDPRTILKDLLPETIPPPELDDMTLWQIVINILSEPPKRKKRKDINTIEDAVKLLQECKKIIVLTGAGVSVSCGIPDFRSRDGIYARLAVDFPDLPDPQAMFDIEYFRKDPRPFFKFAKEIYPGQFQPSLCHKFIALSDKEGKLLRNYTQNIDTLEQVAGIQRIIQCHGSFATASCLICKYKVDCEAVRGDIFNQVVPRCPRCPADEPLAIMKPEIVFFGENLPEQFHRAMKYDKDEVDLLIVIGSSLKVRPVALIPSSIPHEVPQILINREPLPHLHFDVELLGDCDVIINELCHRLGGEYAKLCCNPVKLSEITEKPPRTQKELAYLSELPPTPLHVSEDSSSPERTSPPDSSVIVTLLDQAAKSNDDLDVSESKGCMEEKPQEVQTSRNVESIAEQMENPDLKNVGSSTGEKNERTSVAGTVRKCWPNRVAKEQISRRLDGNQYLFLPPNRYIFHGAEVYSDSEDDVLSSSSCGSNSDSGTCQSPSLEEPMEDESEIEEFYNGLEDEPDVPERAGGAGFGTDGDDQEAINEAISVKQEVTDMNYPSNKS

Sirt5 = target: T4, Sirt5 (Homo sapiens, UniProt Q9NXA8); assay: Fluorogenic Sirt5 Assay Kit; format: biochemical; conditions: 100 μM compounds, 37 °C 30 min
T4 sequence (Q9NXA8 37-310): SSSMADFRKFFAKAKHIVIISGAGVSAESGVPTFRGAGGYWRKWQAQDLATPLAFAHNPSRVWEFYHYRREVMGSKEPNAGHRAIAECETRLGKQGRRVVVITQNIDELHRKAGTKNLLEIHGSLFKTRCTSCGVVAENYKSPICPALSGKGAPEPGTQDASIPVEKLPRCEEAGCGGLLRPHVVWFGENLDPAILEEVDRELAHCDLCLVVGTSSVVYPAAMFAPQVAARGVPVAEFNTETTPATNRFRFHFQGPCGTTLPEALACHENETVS

PLC/PRF/5 cells [3] = assay: Acetylated H3K9 to total H3 in cancer cells; format: cell-based; conditions: 30 μM, 24 hours
R28 cells = assay: MTT cell viability assay; format: cell-based; conditions: 100 μM, 24 hours
H1299 cells [4] = assay: Acetylated H3K9 to total H3 in cancer cells; format: cell-based; conditions: 30 μM, 24 hours
H1299 cells [5] = assay: Colony formation assay; format: cell-based; conditions: 30 μM, one week
PLC/PRF/5 cells [6] = assay: Colony formation assay; format: cell-based; conditions: 30 μM, one week

T1 sequence (Q8N6T7 whole entry): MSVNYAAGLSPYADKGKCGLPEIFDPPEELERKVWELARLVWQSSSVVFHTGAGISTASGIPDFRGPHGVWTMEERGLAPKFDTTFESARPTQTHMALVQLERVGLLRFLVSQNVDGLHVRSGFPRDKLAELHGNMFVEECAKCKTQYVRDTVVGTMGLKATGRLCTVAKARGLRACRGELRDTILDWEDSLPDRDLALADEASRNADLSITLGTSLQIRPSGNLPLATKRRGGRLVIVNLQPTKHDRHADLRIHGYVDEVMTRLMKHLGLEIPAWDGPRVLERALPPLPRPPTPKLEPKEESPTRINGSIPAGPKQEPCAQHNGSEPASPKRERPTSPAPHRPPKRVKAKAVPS

Compound | Activation Fold 100 μM (Sirt6 [1]) | effect on Sirt2 deacetylation activity (Sirt2) | acetylation of H3K9 in the nucleosome test (Sirt6 [2]) | effect on Sirt1 deacetylation activity (Sirt1) | effect on Sirt5 desuccinylation activity (Sirt5) | effect on Sirt6 activity (time course) (Sirt6 [1]) | ICAM-1 induction (BV2 cells) | LPS-induced CXCL10 expression (BV2 cells) | LPS-induced expression of IL-1β (BV2 cells) | LPS-induced expression of IL-6 (BV2 cells) | LPS-induced expression of MCP-1 (BV2 cells) | LPS-induced expression of TNFα (BV2 cells) | LPS-induced iNOS expression (BV2 cells) | other results
FC1(F)CCN(c2ncccc2C2Nc3ccccc3-n3cccc32)CC1 (stereo not drawn) [Compound 25, 4-(2-(4,4-Difluoropiperidin-1-yl)pyridin-3-yl)-4,5-dihydropyrrolo[1,2-a]quinoxaline] | ~ 2 fold |  |  |  |  |  |  |  |  |  |  |  |  | 
OC1CN(CCN2CCN(c3ncccc3C3Nc4ccccc4-n4cccc43)CC2)C1 (stereo not drawn) [Compound 46, 1-(2-(4-(3-(4,5-Dihydropyrrolo[1,2-a]quinoxalin-4-yl)pyridin-2-yl)piperazin-1-yl)ethyl)azetidin-3-ol] |  | no significant effects | significantly decreased | no significant effects | no significant effects | specifically promoted |  | significantly repressed | strongly inhibited; also recorded: almost reversed | strongly inhibited; also recorded: almost reversed | strongly inhibited; also recorded: almost reversed | strongly inhibited | significantly repressed | VCAM-1 induction (BV2 cells): obviously inhibit
c1ccc2c(c1)NC(c1cccnc1N1CCN(CCN3CCCC3)CC1)c1cccn1-2 (stereo not drawn) [Compound 47, 4-(2-(4-(2-(Pyrrolidin-1-yl)ethyl)piperazin-1-yl)pyridin-3-yl)-4,5-dihydropyrrolo[1,2-a]quinoxaline] | 5.38 ± 0.29 fold | no significant effects | no effect | no significant effects | no significant effects | specifically promoted | slight inhibition | significantly repressed | strongly inhibited; also recorded: almost reversed | strongly inhibited; also recorded: almost reversed | strongly inhibited; also recorded: almost reversed | strongly inhibited | significantly repressed | VCAM-1 induction (BV2 cells): obviously inhibit; Activation Fold 30 μM (Sirt6 [1]): 4.80 ± 0.19 fold
O=S1(=O)CCN(c2ncccc2C2Nc3ccccc3-n3cccc32)CC1 (stereo not drawn) [Compound 26, 4-(3-(4,5-Dihydropyrrolo[1,2-a]quinoxalin-4-yl)pyridin-2-yl)thiomorpholine 1,1-dioxide] | ~ 2 fold |  |  |  |  |  |  |  |  |  |  |  |  | 
OC1CCN(c2ncccc2C2Nc3ccccc3-n3cccc32)CC1 (stereo not drawn) [Compound 27, 1-(3-(4,5-Dihydropyrrolo[1,2-a]quinoxalin-4-yl)pyridin-2-yl)piperidin-4-ol] | ~ 2 fold |  |  |  |  |  |  |  |  |  |  |  |  | 

Second part, led by results:

Activation Fold 100 μM (Sirt6 [1]) | effect on Sirt2 deacetylation activity (Sirt2) | acetylation of H3K9 in the nucleosome test (Sirt6 [2]) | effect on Sirt1 deacetylation activity (Sirt1) | effect on Sirt5 desuccinylation activity (Sirt5) | effect on Sirt6 activity (time course) (Sirt6 [1]) | Compound | ICAM-1 induction (BV2 cells) | LPS-induced CXCL10 expression (BV2 cells) | LPS-induced expression of IL-1β (BV2 cells) | LPS-induced expression of IL-6 (BV2 cells) | LPS-induced expression of MCP-1 (BV2 cells) | LPS-induced expression of TNFα (BV2 cells) | LPS-induced iNOS expression (BV2 cells) | other results
6.29 ± 0.02 fold | no significant effects | significantly decreased | no significant effects | no significant effects | specifically promoted | c1ccc2c(c1)NC(c1cccnc1N1CCN(CCn3ccnc3)CC1)c1cccn1-2 (stereo not drawn) [Compound 50, 4-(2-(4-(2-(1H-Imidazol-1-yl)ethyl)piperazin-1-yl)pyridin-3-yl)-4,5-dihydropyrrolo[1,2-a]quinoxaline] | slight inhibition | significantly repressed | strongly inhibited; also recorded: almost reversed | strongly inhibited; also recorded: almost reversed | strongly inhibited; also recorded: almost reversed | strongly inhibited | significantly repressed | Activation Fold 30 μM (Sirt6 [1]): 3.34 ± 0.19 fold
 | no significant effects | significantly decreased | no significant effects | no significant effects | specifically promoted | COCCN1CCN(c2ncccc2C2Nc3ccccc3-n3cccc32)CC1 (stereo not drawn) [Compound 36, 4-(2-(4-(2-Methoxyethyl)piperazin-1-yl)pyridin-3-yl)-4,5-dihydropyrrolo[1,2-a]quinoxaline] |  |  | strongly inhibited | strongly inhibited | strongly inhibited | strongly inhibited |  | Sirt6-dependent deacetylation of H3K9 (acetylated H3K9 to total H3) (PLC/PRF/5 cells [3]): significantly activated Sirt6 to deacetylate H3K9; decrease of acetylated H3K9 when Sirt6 knockdown by siRNA (PLC/PRF/5 cells [3]; Sirt6 siRNA): abolished; toxicity on R28 cells (R28 cells): no obvious toxicity; Sirt6-dependent deacetylation of H3K9 (acetylated H3K9 to total H3) (H1299 cells [4]): significantly activated Sirt6 to deacetylate H3K9; decrease of acetylated H3K9 when Sirt6 knockdown by siRNA (H1299 cells [4]; Sirt6 siRNA): abolished; inhibition of colony formation (H1299 cells [5]): about half; inhibition of colony formation (PLC/PRF/5 cells [6]): about half
 | no significant effects | significantly decreased | no significant effects | no significant effects | specifically promoted | OCCN1CCN(c2ncccc2C2Nc3ccccc3-n3cccc32)CC1 (stereo not drawn) [Compound 35, 2-(4-(3-(4,5-Dihydropyrrolo[1,2-a]quinoxalin-4-yl)pyridin-2-yl)piperazin-1-yl)ethan-1-ol] | slight inhibition |  | strongly inhibited | strongly inhibited | strongly inhibited | strongly inhibited |  | Sirt6-dependent deacetylation of H3K9 (acetylated H3K9 to total H3) (PLC/PRF/5 cells [3]): no obvious influence; toxicity on R28 cells (R28 cells): no obvious toxicity; Sirt6-dependent deacetylation of H3K9 (acetylated H3K9 to total H3) (H1299 cells [4]): no obvious influence; inhibition of colony formation (H1299 cells [5]): only a slight inhibitory effect; inhibition of colony formation (PLC/PRF/5 cells [6]): only a slight inhibitory effect
